The values that follow come from patent US6670339B1, “Use of sulfated oligosaccharides in lowering blood triglyceride levels” (The Australian National University, priority 1997, dated 2003).

Where two headings read alike, the source gives them in different places.

The target of assay [1] is T1, bovine milk lipoprotein lipase (Bos taurus, UniProt P11151).
T1 construct: purified from bovine milk as previously described; from tissue; host or cells: bovine milk
T1 sequence (P11151 29-478): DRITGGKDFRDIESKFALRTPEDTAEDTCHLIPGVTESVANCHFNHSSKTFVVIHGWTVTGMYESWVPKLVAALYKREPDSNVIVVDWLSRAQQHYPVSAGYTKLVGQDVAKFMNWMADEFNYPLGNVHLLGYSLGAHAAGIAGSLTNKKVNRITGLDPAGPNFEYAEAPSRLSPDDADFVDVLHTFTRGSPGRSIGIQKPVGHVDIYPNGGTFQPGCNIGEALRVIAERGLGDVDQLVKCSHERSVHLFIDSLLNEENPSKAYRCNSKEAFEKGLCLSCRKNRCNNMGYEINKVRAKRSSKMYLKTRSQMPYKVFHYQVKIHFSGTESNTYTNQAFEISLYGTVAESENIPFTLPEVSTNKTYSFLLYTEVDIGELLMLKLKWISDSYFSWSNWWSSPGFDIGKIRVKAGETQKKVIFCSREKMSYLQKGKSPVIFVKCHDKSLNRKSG
The assay can be described thus: Inhibition of binding of biotinylated heparin/heparan sulfate to immobilised lipoprotein lipase. Conditions: for inhibitory activity on lipoprotein lipase binding to heparin/heparan sulfate, in words: summary of Table 1. The procedure:
As a more rapid and direct means of measuring the ability of different sulfated oligosaccharides to release lipoprotein lipase from the endothelium, an in vitro assay for this effect was developed. The assay involved immobilising lipoprotein lipase (10 μg/ml in PBS, 15 hr, 4° C.), purified from bovine milk as previously described^12, in 96 well plastic microplates (50 μl/well). Non-specific binding sites were then blocked by the addition of 200 μl/well of PBS containing 1% (w/v) bovine serum albumin (BSA) for 2 hr at 4° C. Following three washes with 200 μl/well of PBS/0.05% Tween 20 (PBST), 50 μl/well of either biotinylated bovine lung heparin or biotinylated porcine mucosal heparan sulfate (Sigma), used at either 1 or 10 μg/ml, was added and incubated for 2 hr at 4° C. Following three washes with PBST, 50 μl/well of europeum-streptavidin (1 ng/ml in PBS/1% BSA) was added for 1 hr at 4° C., the plate again washed three times with PBST, enhancement solution (50 μl/well) added and bound europeum measured by time resolved fluorescence detection using a Delfia Research Fluorometer (Wallac, Turku, Finland). Inhibition assays measured the ability of different sulfated oligosacchandes to inhibit the binding of biotinylated heparan/heparin sulfate to the immobilised lipoprotein lipase enzyme.

Assay [2] concerns serum triglyceride levels. The assay can be described thus: Serum triglyceride lowering by glycosaminoglycans and sulfated oligosaccharides in mice. Format: in vivo, CBA/h female mice. Particulars: 50 mg/kg s.c., 2 hours after injection. The procedure:
FIG. 3. Ability of different glycosaminoglycans and sulfated oligosaccharides to lower serum triglyceride levels in CBA mice. Compounds were injected s.c. at a dose of 50 mg/kg, blood samples taken 2 hours later and assayed for triglyceride content. Each histogram is the mean±SEM (n=3) for each treatment.
Mice (CBA/h female mice 8-10 weeks old) were injected s.c. with a range of glycosaminoglycans and sulfated oligosaccharides at a dose of 50 mg/kg and 2 hours later mice were anaesthetised, blood was collected via cardiac puncture and allowed to clot and serum triglyceride levels measured using a commercially available kit (Sigma, Triglyceride—GPO-Trinder). […] The only other compound with some activity was suramin, a sulfonated compound which has previously been used as an angiogenesis and heparanase inhibitor.

Setting [3] is: biotinylated bovine lung heparin 1 μg/ml.
The mark [4] stands for this setting: biotinylated bovine lung heparin 10 μg/ml.

As for `O=S(=O)(O)OC[C@H]1O[C@@](COS(=O)(=O)O)(O[C@H]2O[C@H](COS(=O)(=O)O)[C@@H](OS(=O)(=O)O)[C@H](OS(=O)(=O)O)[C@H]2OS(=O)(=O)O)[C@@H](OS(=O)(=O)O)[C@@H]1OS(=O)(=O)O` [Sucrose octasulfate, reference compound], in assay [1] (setting [3]), the “IC50, inhibition of binding of Biotinylated Heparin (1 μg/ml) to lipoprotein lipase” value is over 200 µg/mL. For the same compound, the “inhibitory activity on lipoprotein lipase binding to heparin/heparan sulfate, in words” value in assay [1] is recorded as “lacked activity”. Also, in assay [2], the “effect on serum triglyceride levels, in words” value (“effect” for short) was “small but significant enhancement”.
In the case of `Cc1ccc(C(=O)Nc2ccc(S(=O)(=O)O)c3cc(S(=O)(=O)O)cc(S(=O)(=O)O)c23)cc1NC(=O)c1cccc(NC(=O)Nc2cccc(C(=O)Nc3cc(C(=O)Nc4ccc(S(=O)(=O)O)c5cc(S(=O)(=O)O)cc(S(=O)(=O)O)c45)ccc3C)c2)c1` [Suramin, reference compound], the IC50 in assay [1] (biotinylated bovine lung heparin 1 μg/ml, read-out: IC50, inhibition of binding of Biotinylated Heparin (1 μg/ml) to lipoprotein lipase) was over 77.1 µM; in assay [1] (biotinylated bovine lung heparin 10 μg/ml, read-out: IC50, inhibition of binding of Biotinylated Heparin (10 μg/ml) to lipoprotein lipase), over 77.1 µM. The “inhibitory activity on lipoprotein lipase binding to heparin/heparan sulfate, in words” value in assay [1] is on record as “lacked activity”. The “effect” value in assay [2] is recorded as “some activity”.
Take Cellohexaose: in assay [1] (setting [4]), the “IC50, inhibition of binding of Biotinylated Heparin (10 μg/ml) to lipoprotein lipase” value worked out at 12 µg/mL. Also, in assay [1], the “inhibitory activity on lipoprotein lipase binding to heparin/heparan sulfate, in words” value was “exhibited activity”.
On to “maltoheptaose sulfate [Maltoheptaose SO4]”, for which the “IC50, inhibition of binding of Biotinylated Heparin (1 μg/ml) to lipoprotein lipase” value in assay [1] (setting [3]) worked out at 3 µg/mL. Moreover, the “IC50, inhibition of binding of Biotinylated Heparin (10 μg/ml) to lipoprotein lipase” value in assay [1] (setting [4]) stood at 12 µg/mL. Further, in assay [1], the “inhibitory activity on lipoprotein lipase binding to heparin/heparan sulfate, in words” value was “inhibitory”. Also, the “effect” value in assay [2] is listed as “significantly lowered triglyceride levels”.
The matching figures for maltohexaose sulfate [Maltohexaose SO4]: 3 µg/mL, 6 µg/mL, “potent inhibitors” and “significantly lowered triglyceride levels”.
